Reference: patent US20200216416A1, “QUINOLINE COMPOUNDS AS INHIBITORS OF TAM AND MET KINASES” (Array BioPharma Inc., priority 2019, published 2020)
pIC50: −log10 of the molar value.

Key:
[1] = target: T1, human MET kinase F1200I (Homo sapiens, UniProt P08581, F1200I); assay: c-Met Enzyme Assay, F1200I mutant; assay type: binding; details: averaged IC50; F1200I 2 nM; 60-minute incubation at 22° C.
T1 construct: GST-tagged recombinant human MET kinase domain; purchased Signal Chem
How it was run: (§1)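 GST-tagged recombinant MET kinase domain was incubated with 50 nM Alexa-Fluor tracer 236, 2 nM Eu-anti-GST and compound in 25 mM HEPES pH 7.4, 10 mM MgCl2, 0.01% Triton X-100, 1 mM DTT, 2% DMSO for 60 min at 22 °C. TR-FRET ratio gave percent of control, fitted 4-parameter; IC50 at 50 POC.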

[2] = target: T2, human MET kinase D1228H (Homo sapiens, UniProt P08581, D1228H); assay: c-Met Enzyme Assay, D1228H mutant; assay type: binding; details: averaged IC50; D1228H 2 nM; 60-minute incubation at 22° C.; read-out: D1228 H IC50
T2 construct: GST-tagged recombinant human MET kinase domain; purchased Signal Chem
T2 sequence (P08581 1078-1345 D1228H): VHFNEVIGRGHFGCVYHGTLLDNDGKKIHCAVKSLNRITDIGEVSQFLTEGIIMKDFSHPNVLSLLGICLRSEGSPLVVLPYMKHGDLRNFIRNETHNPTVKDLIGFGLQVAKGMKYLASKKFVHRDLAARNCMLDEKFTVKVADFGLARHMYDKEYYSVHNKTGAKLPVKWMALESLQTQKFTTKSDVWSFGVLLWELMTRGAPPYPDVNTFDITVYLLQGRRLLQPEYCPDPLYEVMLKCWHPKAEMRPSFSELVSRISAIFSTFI
How it was run: as §1

[3] = target: T3, GST-tagged recombinant human TYRO3 kinase domain (Homo sapiens, UniProt Q06418); assay: TYRO3 Enzyme Assay (LanthaScreen Eu Kinase Binding); details: averaged IC50; TYRO3 5 nM; 60-minute incubation at 22° C.; TR-FRET
T3 construct: GST-tagged recombinant human TYRO3 kinase domain; purchased Carna PR7480A
T3 sequence (Q06418 518-790 limits assumed): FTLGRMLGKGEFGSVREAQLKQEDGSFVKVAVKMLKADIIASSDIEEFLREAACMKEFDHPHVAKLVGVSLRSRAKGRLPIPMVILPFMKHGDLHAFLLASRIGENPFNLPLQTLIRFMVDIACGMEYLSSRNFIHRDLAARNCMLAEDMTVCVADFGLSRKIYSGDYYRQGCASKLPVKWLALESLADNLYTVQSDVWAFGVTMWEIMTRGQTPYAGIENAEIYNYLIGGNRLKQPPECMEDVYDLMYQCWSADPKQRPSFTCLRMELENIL
How it was run: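 Competitive tracer-displacement TR-FRET: 5 nM kinase, 20 nM Alexa-Fluor Tracer 236 and 2 nM Eu-anti-GST with threefold-diluted compound in 25 mM HEPES pH 7.4, 10 mM MgCl2, 0.01% Triton X-100, 2% DMSO, 60 min at 22° C. Ratiometric percent of control fitted to a 4-parameter logistic; IC50 at 50 POC.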

[4] = target: T4, human MET kinase Y1230C (Homo sapiens, UniProt P08581, Y1230C); assay: c-Met Enzyme Assay, Y1230C mutant; assay type: binding; details: averaged IC50; Y1230C 2 nM; 60-minute incubation at 22° C.; read-out: Y1230 C IC50
T4 construct: GST-tagged recombinant human MET kinase domain; purchased Signal Chem
T4 sequence (P08581 1078-1345 Y1230C): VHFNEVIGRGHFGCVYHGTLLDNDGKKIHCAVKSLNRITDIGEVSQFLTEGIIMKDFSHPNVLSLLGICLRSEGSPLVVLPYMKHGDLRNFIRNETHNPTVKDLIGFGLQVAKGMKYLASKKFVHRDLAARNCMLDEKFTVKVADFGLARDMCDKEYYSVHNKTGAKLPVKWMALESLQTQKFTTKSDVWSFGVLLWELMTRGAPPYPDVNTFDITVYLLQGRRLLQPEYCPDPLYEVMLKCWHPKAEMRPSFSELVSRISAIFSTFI
How it was run: as §1

[5] = target: T5, His-tagged recombinant human MER cytoplasmic domain (Homo sapiens, UniProt Q12866); assay: MER Enzyme Assay (LanthaScreen Eu Kinase Binding); details: averaged IC50; MER 5 nM; 60-minute incubation at 22° C.; TR-FRET
T5 construct: His-tagged recombinant human MER cytoplasmic domain
T5 sequence (Q12866 527-999 limits assumed): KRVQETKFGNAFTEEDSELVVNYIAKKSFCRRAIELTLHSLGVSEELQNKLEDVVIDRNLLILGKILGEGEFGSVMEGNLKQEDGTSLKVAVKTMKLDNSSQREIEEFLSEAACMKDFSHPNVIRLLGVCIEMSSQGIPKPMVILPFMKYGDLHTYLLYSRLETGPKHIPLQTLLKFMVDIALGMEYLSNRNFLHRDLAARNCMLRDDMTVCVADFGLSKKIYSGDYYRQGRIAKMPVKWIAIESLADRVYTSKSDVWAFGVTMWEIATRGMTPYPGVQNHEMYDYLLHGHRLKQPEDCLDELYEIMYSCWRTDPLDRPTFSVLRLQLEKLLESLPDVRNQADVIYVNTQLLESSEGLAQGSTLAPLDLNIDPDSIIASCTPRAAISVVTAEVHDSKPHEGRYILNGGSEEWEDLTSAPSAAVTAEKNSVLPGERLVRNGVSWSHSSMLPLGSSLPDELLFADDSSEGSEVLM
How it was run: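 TR-FRET binding: 5 nM His-MER cytoplasmic domain with 20 nM Tracer 236, 2 nM biotin-anti-His and 2 nM Eu-streptavidin in pH 7.4 HEPES, 10 mM MgCl2, 2% DMSO, with threefold compound dilutions, 60 min at 22 °C. Percent of control was fit to a 4-parameter logistic, and IC50 was taken at 50 POC.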

[6] = target: T6, human MET kinase Y1230H (Homo sapiens, UniProt P08581, Y1230H); assay: c-Met Enzyme Assay, Y1230H mutant; assay type: binding; details: averaged IC50; Y1230H 5 nM; 60-minute incubation at 22° C.; read-out: Y1230 H IC50
T6 construct: GST-tagged recombinant human MET kinase domain; purchased Signal Chem
T6 sequence (P08581 1078-1345 Y1230H): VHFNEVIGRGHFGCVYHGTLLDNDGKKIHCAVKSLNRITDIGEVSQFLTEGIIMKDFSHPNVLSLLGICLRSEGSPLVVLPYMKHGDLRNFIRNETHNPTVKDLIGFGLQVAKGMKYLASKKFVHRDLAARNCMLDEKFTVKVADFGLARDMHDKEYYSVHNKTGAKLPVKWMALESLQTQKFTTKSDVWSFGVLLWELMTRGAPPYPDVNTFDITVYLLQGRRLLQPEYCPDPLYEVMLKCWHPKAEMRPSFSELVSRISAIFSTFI
How it was run: as §1

[7] = target: T7, human MET kinase Y1230S (Homo sapiens, UniProt P08581, Y1230S); assay: c-Met Enzyme Assay, Y1230S mutant; assay type: binding; details: averaged IC50; Y1230S 8 nM; 60-minute incubation at 22° C.; read-out: Y1230 S IC50
T7 construct: GST-tagged recombinant human MET kinase domain; purchased Signal Chem
T7 sequence (P08581 1078-1345 Y1230S): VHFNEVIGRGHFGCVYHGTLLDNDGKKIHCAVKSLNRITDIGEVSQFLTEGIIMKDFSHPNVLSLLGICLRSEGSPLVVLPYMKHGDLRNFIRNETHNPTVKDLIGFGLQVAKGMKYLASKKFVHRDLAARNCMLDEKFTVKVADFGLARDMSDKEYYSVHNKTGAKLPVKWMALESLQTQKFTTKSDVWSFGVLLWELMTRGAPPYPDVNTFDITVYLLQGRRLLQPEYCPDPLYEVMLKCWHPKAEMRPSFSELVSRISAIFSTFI
How it was run: as §1

[8] = target: T8, human MET kinase del Ex14 (Homo sapiens, UniProt P08581, DEL963-1009); assay: c-Met Enzyme Assay, del Ex14 mutant; assay type: binding; details: averaged IC50; del Ex14 5 nM; 60-minute incubation at 22° C.; read-out: Del14 IC50
T8 construct: GST-tagged recombinant human MET kinase domain; purchased Signal Chem
T8 sequence (P08581 with tags, fused parts or gaps DEL963-1009 limits assumed): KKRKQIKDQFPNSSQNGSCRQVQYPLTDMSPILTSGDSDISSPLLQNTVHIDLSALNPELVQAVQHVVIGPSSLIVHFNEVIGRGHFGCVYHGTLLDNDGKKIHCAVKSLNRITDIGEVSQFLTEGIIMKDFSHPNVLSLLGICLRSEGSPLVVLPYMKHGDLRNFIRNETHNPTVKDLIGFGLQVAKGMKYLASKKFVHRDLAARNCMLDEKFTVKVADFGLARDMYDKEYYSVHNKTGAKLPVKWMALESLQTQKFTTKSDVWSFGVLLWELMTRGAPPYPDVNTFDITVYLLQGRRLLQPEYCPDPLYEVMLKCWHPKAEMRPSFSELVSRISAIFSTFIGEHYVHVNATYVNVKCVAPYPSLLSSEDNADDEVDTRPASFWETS
How it was run: as §1

T1 sequence (P08581 1078-1345 F1200I limits assumed): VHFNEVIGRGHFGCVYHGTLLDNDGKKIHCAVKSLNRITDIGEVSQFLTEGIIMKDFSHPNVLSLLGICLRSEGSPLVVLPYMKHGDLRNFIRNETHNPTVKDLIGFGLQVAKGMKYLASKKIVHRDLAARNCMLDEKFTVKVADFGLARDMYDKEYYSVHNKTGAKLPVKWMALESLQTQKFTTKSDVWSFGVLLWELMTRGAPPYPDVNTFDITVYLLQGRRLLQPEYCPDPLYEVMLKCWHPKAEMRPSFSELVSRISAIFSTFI

SMILES	pIC50 [1]	pIC50 [2]	pIC50 [3]	pIC50 [4]	pIC50 [5]	pIC50 [6]	pIC50 [7]	pIC50 [8]
COc1ccc(-c2cn(C(C)C)cc(C(=O)Nc3ccc(Oc4ccnc5cc(OC)c(OC)cc45)cn3)c2=O)c(F)c1 [Example 31, N-(5-((6,7-dimethoxyquinolin-4yl)oxy)pyridin-2-yl)-5-(2-fluoro-4-methoxyphenyl)-1-isopropyl-4-oxo-1,4-dihydropyridine-3-carboxamide]	7.33	7.25	7.64	7.16	8.30	7.01	7.14	7.35
COc1cc2nccc(Oc3ccc(NC(=O)c4cn(C(C)C)cc(-c5ccc(F)cc5OC)c4=O)nc3)c2cc1OC [Example 32, N-(5-((6,7-dimethoxyquinolin-4yl)oxy)pyridin-2-yl)-5-(4-fluoro-2-methoxyphenyl)-1-isopropyl-4-oxo-1,4-dihydropyridine-3-carboxamide]	8.38	8.00	8.05	8.17	8.52	7.92	8.15	8.49
COc1ccc2nccc(Oc3ccc(NC(=O)c4cn(C(C)C)c(C)c(-c5ccc(F)cc5)c4=O)nc3)c2c1 [Example 33, 5-(4-fluorophenyl)-1-isopropyl-N-(5-((6-methoxyquinolin-4-yl)oxy)pyridin-2-yl)-6-methyl-4-oxo-1,4-dihydropyridine-3-carboxamide]	8.34	8.28	8.00	8.57	8.30	7.95	8.30	8.31
COc1cc2nccc(Oc3ccc(NC(=O)c4cn(CCC(C)C)cc(-c5ccc(F)cc5)c4=O)nc3)c2cc1OC [Example 34, N-(5-((6,7-dimethoxyquinolin-4yl)oxy)pyridin-2-yl)-5-(4-fluorophenyl)-1-isopentyl-4-oxo-1,4-dihydropyridine-3-carboxamide]	8.13	8.26	7.85	8.38	8.05	8.23	8.39	8.24
COc1cc2nccc(Oc3ccc(NC(=O)c4cn(CCC(C)C)cc(-c5ccc(F)c(F)c5)c4=O)nc3)c2cc1OC [Example 35, 5-(3,4-difluorophenyl)-N-(5-((6,7-dimethoxyquinolin-4yl)oxy)pyridin-2-yl)-1-isopentyl-4-oxo-1,4-dihydropyridine-3-carboxamide]	7.94	8.08	7.52	7.98	7.82	7.74	8.07	7.85
COc1cc2nccc(Oc3ccc(NC(=O)c4cn(CCC(C)C)cc(-c5ccc(F)cc5F)c4=O)nc3)c2cc1OC [Example 36, 5-(2,4-difluorophenyl)-N-(5-((6,7-dimethoxyquinolin-4yl)oxy)pyridin-2-yl)-1-isopentyl-4-oxo-1,4-dihydropyridine-3-carboxamide]	8.49	8.74	7.85	8.55	8.10	8.36	8.64	8.62
COc1cc2nccc(Oc3ccc(NC(=O)c4cn(CCC(C)C)cc(-c5ccc(Cl)cc5)c4=O)nc3)c2cc1OC [Example 37]	7.79	7.98	7.52	8.03	7.80	7.77	7.99	7.91
CCn1cc(C(=O)Nc2ccc(Oc3ccnc4ccc(OC)cc34)cn2)c(=O)c(-c2ccc(F)cc2)c1 [Example 39, 1-ethyl-5-(4-fluorophenyl)-N-(5-((6-methoxyquinolin-4-yl)oxy)pyridin-2-yl)-4-oxo-1,4-dihydropyridine-3-carboxamide]	7.50	7.18	7.08	7.33	7.80	6.68	7.26	7.59
COc1ccc2nccc(Oc3ccc(NC(=O)c4cn(C)cc(-c5ccc(F)cc5)c4=O)nc3)c2c1 [Example 41, 5-(4-fluorophenyl)-N-(5-((6-methoxyquinolin-4yl)oxy)pyridin-2-yl)-1-methyl-4-oxo-1,4-dihydropyridine-3-carboxamide]	6.98	6.59	6.85	6.76	7.48	6.48	6.65	6.97
COc1cc2nccc(Oc3ccc(NC(=O)c4cn(CCN(C)C)cc(-c5ccc(Cl)cc5)c4=O)nc3)c2cc1OC [Example 42]	8.47	8.62	7.80	8.62	8.05	8.17	8.57	8.72
COc1cc2nccc(Oc3ccc(NC(=O)c4cn(CCN(C)C)cc(-c5ccc(F)c(F)c5)c4=O)nc3)c2cc1OC [Example 43, 5-(3,4-difluorophenyl)-N-(5-((6,7-dimethoxyquinolin-4-yl)oxy)pyridin-2-yl)-1-]	8.70	8.80	7.96	8.85	8.30	8.54	8.96	8.60
COc1cc2nccc(Oc3ccc(NC(=O)c4cn(CCN(C)C)cc(-c5ccc(F)cc5F)c4=O)nc3)c2cc1OC [Example 44, 5-(2,4-difluorophenyl)-N-(5-((6,7-dimethoxyquinolin-4-yl)oxy)pyridin-2-yl)-1-(2-(dimethylamino)ethyl)-4-oxo-1,4-dihydropyridine-3-carboxamide]	8.38	8.72	8.40	8.77	8.52	8.57	8.68	8.68
COc1cc2nccc(Oc3ccc(NC(=O)c4cn(C)c(C(C)C)c(-c5ccc(F)cc5)c4=O)nc3)c2cc1OC [Example 45, N-(5-((6,7-dimethoxyquinolin-4-yl)oxy)pyridin-2-yl)-5-(4-fluorophenyl)-6-isopropyl-1-methyl-4-oxo-1,4-dihydropyridine-3-carboxamide]	8.08	7.95	7.04	8.36	7.57	8.00	8.21	8.24
COc1cc2nccc(Oc3ccc(NC(=O)c4cn(CCN(C)C)cc(-c5ccc(F)cc5)c4=O)nc3)c2cc1OC [Example 46]	8.47	8.49	8.30	8.77	8.70	8.47	8.77	8.55
